In PubChem BioAssay AID977624 (Broad Institute, 2014):
Records with an inconclusive call do not appear. Activity calls are given as the source filed them.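 The calls were made as follows: active = compound lowering the normal-ribosome reporter at least twice as much as the humanized-ribosome reporter, growth loss under a set limit; inconclusive = no clear call, values can overlap the other calls; inactive = the rest.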

How the values were obtained:
[1] = tested on: E. coli mixed culture (wild-type GFP + h34 RFP) total growth, OD600, 24 h; experiment: wild-type E. coli growth inhibition versus h34 humanized strain – h34 mutant RFP, wild-type GFP, cherry-pick, dose response (AID 977624);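 also: wild-type GFP strain co-cultured with humanized h34 ribosome RFP strain in same well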; details: E. coli mixed culture (wild-type GFP + h34 RFP), 24 h; measured here: total OD600 growth
[2] = tested on: E. coli wild-type GFP strain growth, fluorescence, 24 h; experiment: as above

Compound | AC50 [1] [µM] | AC50 [2]
Cc1cccc(OCCC(=O)Nc2ccc(F)c(F)c2)c1 | > 100 | –
CN(CCOc1ccccc1)C(=O)c1ccc(OC2CCN(C(=O)C3CC3)CC2)cc1 | > 100 | > 100 µM (inactive)
CC(=O)c1cccc(NC(=O)COC(=O)CCC(=O)c2ccc(F)cc2)c1 | > 100 | –
C[C@@H]1CCCCO[C@@H](CN(C)C(=O)c2ccccc2)[C@H](C)CN([C@@H](C)CO)C(=O)c2cc(NC(=O)c3ccccc3)ccc2O1 | > 100 | > 100 µM (inactive)
N#Cc1cccc(-c2ccc3c(c2)[C@H]2[C@H](CCN2C(=O)c2ccccc2F)[C@H](CO)N3)c1 | > 100 | > 100 µM (inactive)
Cc1cccc(-c2ccc([C@H]3[C@H](CO)N4CCCCN(S(=O)(=O)c5ccccc5C)C[C@@H]34)cc2)c1 | > 52 | –
COc1cc(C(N)=O)cc(Br)c1OCc1ccccc1 | > 100 | > 100 µM (inactive)
COc1ccc(NC(=O)Nc2cccc3c2O[C@H](CN(C)S(=O)(=O)c2ccc(Cl)cc2)[C@H](C)CN([C@@H](C)CO)C3=O)cc1 | > 100 | > 52 µM (inactive)
O=C(Cc1c(Cl)cccc1Cl)Nc1cccc(S(=O)(=O)N2CCOCC2)c1 | 48.6 | > 100 µM (inactive)
Cc1ccccc1COc1ccc(-c2nn[nH]n2)cc1 | > 100 | –
O=S(=O)(c1ccccc1)N1CC[C@@H]2[C@H](CO)Nc3ccc(Br)cc3[C@@H]21 | > 100 | > 100 µM (inactive)
CCOc1ccc(CCNC(=O)CCn2ccc3cc(S(=O)(=O)N4CCCC4)ccc32)cc1 | > 100 | –
O=C(Nc1cccc(Cl)c1)N1C[C@@H]2[C@H](c3ccccc31)[C@H](CO)N2Cc1ccncc1 | > 100 | –
CCc1ccc(C(=O)Nc2cccnc2Oc2ccc(Cl)cc2)cc1 | > 100 | > 100 µM (inactive)
C=CCN(CC(O)c1cccc([N+](=O)[O-])c1)C(C)CCc1ccccc1 (configuration not stated) | > 100 | –
Cn1nc(C(=O)Nc2cccc(S(=O)(=O)N3CCCCC3)c2)c2ccccc2c1=O | > 100 | > 100 µM (inactive)
Cc1nc(SCC(=O)Nc2ccc3c(c2)OCCO3)nc(C)c1C | > 100 | –
O=C(Nc1cc(S(=O)(=O)N2CCOCC2)ccc1N1CCOCC1)c1ccc([N+](=O)[O-])s1 | > 100 | –
CN(C)Cc1nc2ccccc2c(=O)n1Cc1nc(-c2cccc([N+](=O)[O-])c2)cs1 | > 100 | –
Cc1cc(NC(=O)CN2CCN(c3cccc(Cl)c3)CC2)no1 | 29.5 | > 100 µM (inactive)
O=C(Nc1ccc(F)cc1)N1CCCCN2[C@@H](CO)[C@H](c3ccc(-c4ccncc4)cc3)[C@@H]2C1 | > 100 | > 100 µM (inactive)
Cc1ccsc1C(=O)C1CCCN(Cc2cc(F)ccc2-n2cccn2)C1 (configuration not stated) | > 100 | > 100 µM (inactive)
C=CCn1c(SCC(=O)Nc2ccc3c(c2)OCCO3)nnc1-c1ccco1 | > 100 | –

Compound | AC50 [1] [µM] | AC50 [2]
Cc1noc(C)c1NC(=O)N(C)C[C@H]1OCCCC[C@@H](C)Oc2ccc(NC(=O)Nc3cccc4ccccc34)cc2C(=O)N([C@@H](C)CO)C[C@H]1C | > 100 | –
CCOC(=O)c1cc(-c2ccc(OC)cc2)n[nH]1 | > 100 | –
COc1ccccc1NC(=O)CSc1nccn1Cc1ccc(F)cc1 | > 100 | –
CN1CCN(C(=O)C[C@@H]2CC[C@@H]3[C@H](COC[C@H](O)CN3C(=O)Nc3ccc(Cl)cc3)O2)CC1 | > 100 | > 100 µM (inactive)
CCCN(Cc1ccco1)S(=O)(=O)c1ccc(OC)c(OC)c1 | > 100 | –
CCn1cc(CCC(=O)NCCc2ccccc2)c2ccccc21 | > 100 | –
O=C(CCc1ccccc1)Nc1sc2c(c1C(=O)O)CCCC2 | – | > 100 µM (inactive)
NC(=O)c1sc2nnc(-c3ccccc3)c(-c3ccccc3)c2c1N | – | > 100 µM (inactive)
CC1(C)CC(=O)c2cnc(N3CCc4ccccc43)nc2C1 | – | > 100 µM (inactive)
Fc1cccc(Cc2c(-c3ccco3)nc3c4ccccc4ccn23)c1 | – | > 100 µM (inactive)
CC(=O)Oc1ccc(N(C(C)=O)S(=O)(=O)c2ccc(C)cc2)c2ccccc12 | – | > 100 µM (inactive)
CO[C@@H]1CN(C)C(=O)c2cc(NC(=O)C3CCCC3)ccc2OC[C@@H](C)N(C(=O)Nc2ccc(C(F)(F)F)cc2)C[C@H]1C | > 100 | –
O=C(CCCn1c(=S)[nH]c2ccsc2c1=O)Nc1ccc2c(c1)OCCO2 | – | > 100 µM (inactive)
CC(C)(C)C1CCC(OCC(O)CN2CCN(c3ccccn3)CC2)CC1 (configuration not stated) | – | > 100 µM (inactive)
COc1cccc2c1Oc1cc([N+](=O)[O-])cc(N(C)C(C)=O)c1C=C2 | – | > 100 µM (inactive)
O=C(Nc1ccc(C(=O)Nc2ccccc2Cl)cc1)c1cccnc1 | – | > 100 µM (inactive)
CC(=O)Nc1cccc(-c2ccnc3c2CC(C(=O)Nc2ccc4c(c2)OCO4)O3)c1 (configuration not stated) | > 100 | –
Cc1ccc(NC(=O)CN(C)S(=O)(=O)c2cccc3cccnc23)cc1F | – | > 100 µM (inactive)
Cc1ccccc1-n1nnnc1SCCCC(=O)c1ccc(F)cc1 | – | > 100 µM (inactive)
CC(OC(=O)CCc1nc2ccccc2c(=O)[nH]1)C(=O)c1ccc(Br)cc1 (configuration not stated) | – | > 100 µM (inactive)
COC(=O)c1cccc(CN2C(=O)SC(Nc3ccc(C)cc3)C2=O)c1 (configuration not stated) | – | > 100 µM (inactive)
Fc1cccc(Cl)c1CSc1ccc(-c2ccco2)nn1 | – | > 100 µM (inactive)
O=C1c2ccccc2NC(c2ccc(-c3cccc([N+](=O)[O-])c3)o2)N1O (configuration not stated) | > 100 | –

Compound | AC50 [1] [µM] | AC50 [2]
Cc1cccc(-c2ccc([C@H]3[C@@H](CO)N4CCCCN(S(=O)(=O)c5ccccc5C)C[C@H]34)cc2)c1 | – | > 52 µM (inactive)
COc1ccc(Br)c(-c2nc(CS(=O)(=O)c3ccc(F)cc3)no2)c1 | – | > 100 µM (inactive)
CC1CCN(c2ccc3nnc(CCC(=O)Nc4cccc(F)c4)n3n2)CC1 | > 100 | –
COC(=O)c1c(NC(=O)c2ccccc2C(=O)O)sc2c1CCC2 | – | > 100 µM (inactive)
O=C(O)c1ccc(-c2noc(-c3cccc(Cl)c3)n2)cc1 | – | > 100 µM (inactive)
COC(=O)C(Cc1csc2ccc(Cl)cc12)NC(=O)c1ccc(Cl)cc1 (configuration not stated) | – | > 100 µM (inactive)
O=C(CCCOc1ccc(Cl)cc1Cl)Nc1ccccc1C(=O)O | – | > 100 µM (inactive)
CCOC(=O)c1[nH]c2ccccc2c1NC(=O)c1ccc(Br)o1 | – | > 100 µM (inactive)
CCOC(=O)c1c(C)[nH]c(C)c1S(=O)(=O)NCCN1CCN(c2ccccc2F)CC1 | > 100 | –
O=C(NCc1ccco1)c1ccc(COc2cccc3ccccc23)cc1 | – | > 100 µM (inactive)
COc1ccc(-c2ccc3ccccc3n2)cc1OC | – | > 100 µM (inactive)
COc1cc(NC(=O)CSCc2ccc(Cl)cc2Cl)c(C(=O)O)cc1OC | – | > 100 µM (inactive)
CS(=O)(=O)c1cccc(C(=O)Nc2cccc(-c3nc4ccccc4[nH]3)c2)c1 | – | > 100 µM (inactive)
CCCCc1ccc(S(=O)(=O)Nc2ccc(C)c(NS(C)(=O)=O)c2)cc1 | – | > 100 µM (inactive)
Cc1ccc2oc(C(=O)N(CCO)Cc3ccccc3)c(C)c2c1 | – | > 100 µM (inactive)
C[C@H](CO)N1C[C@H](C)[C@H](CN(C)C(=O)CCCN(C)C)OCCCC[C@H](C)Oc2ccc(NC(=O)Nc3cccc4ccccc34)cc2C1=O | – | > 100 µM (inactive)
Cc1cc(Br)ccc1SCC(=O)OCC(=O)NCc1ccco1 | – | > 100 µM (inactive)
CCOc1ccc(S(=O)(=O)Nc2ccc(S(=O)(=O)N3CCCC3)cc2)cc1 | – | > 100 µM (inactive)
CCC(=O)Nc1sc(Cc2ccc3c(c2)OCO3)c(C)c1C(N)=O | – | > 100 µM (inactive)
O=C(CC1C(=O)NCCN1CC1CCCCC1)NCc1ccc(F)cc1F (configuration not stated) | > 100 | –
Cc1ccc2nc(SCC(=O)Nc3c(F)cccc3F)[nH]c2c1 | – | > 100 µM (inactive)
CC1CCN(CC(O)COCCC23CC4CC(CC(C4)C2)C3)CC1 (configuration not stated) | – | > 100 µM (inactive)
C[C@]12CCC3C(CC[C@H]4C[C@@H](O)CC[C@]34C)[C@H]1CC[C@H]2O (some centres not stated) | – | > 100 µM (inactive)

Compound | AC50 [1] [µM] | AC50 [2]
NC(=O)c1nsc(C(=O)N(c2ccccc2F)C(C(=O)NCc2ccc(F)cc2)c2ccc(O)cc2)c1N (configuration not stated) | – | > 100 µM (inactive)
CC1(C(=O)NS(=O)(=O)c2ccc3c(c2)CCO3)CCN1C(=O)c1ccccc1CCc1ccccc1 (configuration not stated) | – | > 100 µM (inactive)
CC(=O)Nc1cccc(NC(=O)CSc2ccc(-c3cccnc3)nn2)c1 | > 100 | –
O=C(c1ccc2c(c1)CCN2S(=O)(=O)c1ccccc1)N1CCN(c2ccccc2)CC1 | > 100 | –
C[C@@H]1CN([C@H](C)CO)C(=O)c2cccc(NC(=O)c3ccncc3)c2O[C@@H]1CN(C)S(=O)(=O)c1ccc(Cl)cc1 | – | > 100 µM (inactive)
Cc1cccc(C)c1NC(=O)C1(C)CSCC(=O)N1CCOc1ccccc1 (configuration not stated) | – | > 100 µM (inactive)
CN(C)C(=O)C1C2NC(=S)N(c3cccc(Cl)c3)C1(C)Oc1ccc(Cl)cc12 (configuration not stated) | – | > 100 µM (inactive)
CCN(CC)CCN(C(=O)C1CCCCC1)c1nc2cc3c(cc2s1)OCO3 | – | > 100 µM (inactive)
CC(=O)c1c(C)[nH]c(C(=O)Nc2nc(C)cs2)c1C | – | > 100 µM (inactive)
FC(F)(F)c1ccc(Cl)c(-n2c(Cc3cccs3)n[nH]c2=S)c1 | – | > 100 µM (inactive)
CCSc1nc2ccccc2c(=O)n1CCc1ccc(OC)c(OC)c1 | > 100 | –
C=CCn1c(CCSCc2ccc(OC)c(C)c2)n[nH]c1=S | – | > 100 µM (inactive)
Cc1ccc(C(=O)OCC(=O)c2c[nH]c3ccccc23)cc1NC(=O)c1ccco1 | – | > 100 µM (inactive)
CCOc1cccc(-c2cc(-c3n[nH]c(=S)n3CC)c3ccccc3n2)c1 | – | > 100 µM (inactive)
CCc1ccc(NC(=O)CCc2c(C)nn(-c3ccc(N4CCCCC4)nn3)c2C)cc1 | – | > 100 µM (inactive)
CCC(=O)c1ccc(OCC(=O)Nc2nc(C)cs2)cc1 | – | > 100 µM (inactive)
CCc1cc2cc(OC)ccc2nc1SCC(=O)Nc1cc(OC)c(OC)cc1C(=O)O | – | > 100 µM (inactive)
Cc1ccc(-n2nc(C)c3c(C)c(CCC(=O)O)c(C)nc32)cc1C | – | > 100 µM (inactive)
O=C(Nc1cccc(O)c1)c1cc(-c2ccccc2Cl)on1 | – | > 100 µM (inactive)
O=C(CN1CCc2ccccc2C1)Nc1ccc(F)cc1F | – | > 100 µM (inactive)
